IC50 data for 16 molecules are collected here from US20240425499A1, “TYRO3 INHIBITORS” (HALIA THERAPEUTICS, INC., priority 2021, published 2024).

The target in this test is recombinant human TYRO3 (Homo sapiens (Human), UniProt Q06418). The test can be described thus: TYRO3 enzymatic assay (radiometric [32P]-ATP, Poly(Glu,Tyr) substrate). The format is biochemical. Particulars: recombinant human TYRO3, [32P]-ATP. As for the experimental part:
Poly(Glu, Tyr) sodium salt (Glu:Tyr (4:1), quality level 200, molecular weight 5,000-20,000, obtained from Sigma Aldrich, catalogue #P7244, assay concentration 0.20 mg/mL) and recombinant human TYRO3 (obtained from ThermoFisher Scientific, catalogue #PV3828, assay concentration 2 nM) were mixed in assay buffer (20 mM Hepes pH 7.5, 10 mM MgCl2, 1 mM EGTA, 0.02% Brij35, 0.02 mg/ml BSA, 0.1 mM Na3VO4, 2 mM DTT, 1% DMSO, with added MnCl2 at a final concentration of 2 mM). Compounds of interest (in DMSO, serial 3-fold dilution from 10 μM to 0.5 nM) or control (1% DMSO) were dispensed into the kinase reaction mixture by Acoustic technology (Echo550; nanoliter range). After incubation at room temperature for 20 minutes, the kinase reaction was initiated by addition of [^32P]-ATP (Specific activity 10 μCi/μl) and the mixture was incubated at room temperature for 2 hours. The reaction was then stopped by spotting the reaction mixture on strips of phosphocellulose P81 paper. Following washing, the radioactivity of the P81 paper was measured and kinase activity data were expressed as the percent remaining kinase activity in test samples compared to vehicle (dimethyl sulfoxide) reactions. IC50 values and curve fits were obtained using Prism (GraphPad Software).

Chain of recombinant human TYRO3 (Q06418 41-890): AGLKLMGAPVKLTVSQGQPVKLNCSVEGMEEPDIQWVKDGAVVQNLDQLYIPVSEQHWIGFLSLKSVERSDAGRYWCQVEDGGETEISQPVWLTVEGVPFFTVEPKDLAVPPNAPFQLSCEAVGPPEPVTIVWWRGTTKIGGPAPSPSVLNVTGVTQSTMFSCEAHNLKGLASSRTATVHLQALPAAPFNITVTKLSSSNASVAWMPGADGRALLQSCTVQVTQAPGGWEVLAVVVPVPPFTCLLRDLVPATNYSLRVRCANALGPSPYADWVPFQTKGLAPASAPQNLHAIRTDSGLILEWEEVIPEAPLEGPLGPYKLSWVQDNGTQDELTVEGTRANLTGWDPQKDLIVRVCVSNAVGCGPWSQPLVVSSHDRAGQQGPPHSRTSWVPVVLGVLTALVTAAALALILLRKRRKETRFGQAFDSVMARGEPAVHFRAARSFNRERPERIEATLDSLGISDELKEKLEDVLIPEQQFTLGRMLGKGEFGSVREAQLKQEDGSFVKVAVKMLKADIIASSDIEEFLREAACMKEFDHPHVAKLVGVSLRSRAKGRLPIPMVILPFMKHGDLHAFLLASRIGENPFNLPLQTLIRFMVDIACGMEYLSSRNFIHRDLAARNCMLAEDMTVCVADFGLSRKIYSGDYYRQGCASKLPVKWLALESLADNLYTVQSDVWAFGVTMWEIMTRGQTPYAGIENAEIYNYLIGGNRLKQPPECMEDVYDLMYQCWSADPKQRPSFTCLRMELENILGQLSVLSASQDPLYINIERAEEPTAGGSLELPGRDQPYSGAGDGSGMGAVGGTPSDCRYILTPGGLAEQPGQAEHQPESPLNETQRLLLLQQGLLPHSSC

Consider `COc1ccc(-c2c[nH]c3ncc(-c4ccc(CN5CCCC(F)C5)cc4)cc23)cn1` (stereo not shown) [compound 40, 5-(4-((3-fluoropiperidin-1-yl)methyl)phenyl)-3-(6-methoxypyridin-3-yl)-1H-pyrrolo[2,3-b]pyridine], for which the 50% inhibitory concentration (IC50) lay within 151 to 500 nM. As for `COc1ccc(-c2c[nH]c3ncc(-c4ccc(CN5CCC6(CC5)CN(C)C6)cc4)cc23)cn1` [compound 42, 7-(4-(3-(6-methoxypyridin-3-yl)-1H-pyrrolo[2,3-b]pyridin-5-yl)benzyl)-2-methyl-2,7-diazaspiro[3.5]nonane], the IC50 is 151 to 500 nM. Under `OCc1ccc(-c2c[nH]c3ncc(-c4ccc(CN5CCCC(O)C5)cc4)cc23)cn1` (stereo not shown) [compound 43, 1-(4-(3-(6-(hydroxymethyl)pyridin-3-yl)-1H-pyrrolo[2,3-b]pyridin-5-yl)benzyl)piperidin-3-ol] stands 51 to 150 nM; under `OC1CCCN(Cc2ccc(-c3cnc4[nH]c(Cl)c(-c5cccc(F)c5)c4c3)cc2)C1` (stereo not shown) [compound 54, 1-(4-(2-chloro-3-(3-fluorophenyl)-1H-pyrrolo[2,3-b]pyridin-5-yl)benzyl)piperidin-3-ol], 51 to 150 nM; under `OC1CCCN(Cc2ccc(-c3cnc4[nH]c(Cl)c(-c5cccc(C(F)F)c5)c4c3)cc2)C1` (stereo not shown) [compound 55, 1-(4-(2-chloro-3-(3-(difluoromethyl)phenyl)-1H-pyrrolo[2,3-b]pyridin-5-yl)benzyl)piperidin-3-ol], 151 to 500 nM. As for `COc1ccc(-c2c(C)[nH]c3ncc(-c4ccc(CN5CCCC(O)C5)cc4)cc23)cn1` (stereo not shown) [compound 62, 1-(4-(3-(6-methoxypyridin-3-yl)-2-methyl-1H-pyrrolo[2,3-b]pyridin-5-yl)benzyl)piperidin-3-ol], the IC50 is 51 to 150 nM. With `COCc1[nH]c2ncc(-c3ccc(CN4CCCC(O)C4)cc3)cc2c1-c1ccc(F)nc1` (stereo not shown) [compound 64, 1-(4-(3-(6-fluoropyridin-3-yl)-2-(methoxymethyl)-1H-pyrrolo[2,3-b]pyridin-5-yl)benzyl)piperidin-3-ol], the IC50 is 51 to 150 nM. In the case of `OC1CCCN(Cc2ccc(-c3cnc4[nH]c(C(F)F)c(-c5cccc(F)c5)c4c3)cc2)C1` (stereo not shown) [compound 68, 1-(4-(2-(difluoromethyl)-3-(3-fluorophenyl)-1H-pyrrolo[2,3-b]pyridin-5-yl)benzyl)piperidin-3-ol], the IC50 lay within 51 to 150 nM. Under `COc1ccc(-c2c[nH]c3ncc(-c4ccc(CN5CCCC(OC(C)=O)C5)cc4)cc23)cn1` (stereo not shown) [compound 69, 1-(4-(3-(6-methoxypyridin-3-yl)-1H-pyrrolo[2,3-b]pyridin-5-yl)benzyl)piperidin-3-yl acetate] stands 151 to 500 nM; under `COCC1CCCN(Cc2ccc(-c3cnc4[nH]cc(-c5ccc(OC)nc5)c4c3)cc2)C1` (stereo not shown) [compound 70, 5-(4-((3-(methoxymethyl)piperidin-1-yl)methyl)phenyl)-3-(6-methoxypyridin-3-yl)-1H-pyrrolo[2,3-b]pyridine], 51 to 150 nM; under `COc1ccc(-c2c[nH]c3ncc(-c4ccc(CN5CCC(C)(O)CC5)cc4)cc23)cn1` [compound 71, 1-(4-(3-(6-methoxypyridin-3-yl)-1H-pyrrolo[2,3-b]pyridin-5-yl)benzyl)-4-methylpiperidin-4-ol], 51 to 150 nM. On to `CNC1CCN(Cc2ccc(-c3cnc4[nH]cc(-c5ccc(OC)nc5)c4c3)cc2)CC1` [compound 73], for which the IC50 lay in the range of 151 to 500 nM.

For `COc1ccc(-c2c[nH]c3ncc(-c4ccc(CN5CCC(N(C)C)CC5)cc4)cc23)cn1` [compound 74, 1-(4-(3-(6-methoxypyridin-3-yl)-1H-pyrrolo[2,3-b]pyridin-5-yl)benzyl)-N,N-dimethylpiperidin-4-amine], the IC50 lay within 151 to 500 nM.

Turning to `CC1(O)CCN(c2ccc(-c3cnc4[nH]cc(-c5ccc6[nH]ccc6c5)c4c3)cc2)CC1` [compound 77, 1-(4-(3-(1H-indol-5-yl)-1H-pyrrolo[2,3-b]pyridin-5-yl)phenyl)-4-methylpiperidin-4-ol], the IC50 fell in the range of 151 to 500 nM. The figure for `CCN1CCc2cc(-c3c[nH]c4ncc(-c5ccc(CN6CCCC(O)C6)cc5)cc34)ccc2C1` (stereo not shown) [compound 81, 1-(4-(3-(2-ethyl-1,2,3,4-tetrahydroisoquinolin-6-yl)-1H-pyrrolo[2,3-b]pyridin-5-yl)benzyl)piperidin-3-ol] is 51 to 150 nM. `CN1CCc2cc(-c3c[nH]c4ncc(-c5ccc(CN6CCCC(CO)C6)cc5)cc34)ccc2C1` (stereo not shown) [compound 82, (1-(4-(3-(2-methyl-1,2,3,4-tetrahydroisoquinolin-6-yl)-1H-pyrrolo[2,3-b]pyridin-5-yl)benzyl)piperidin-3-yl)methanol]: the 50% inhibitory concentration (IC50) fell in the range of 51 to 150 nM.
